Measurements taken from article PMC7546441 (Nature chemical biology, 2019).

Columns and labels:
Bs GDH = Bs GDH (Bacillus subtilis, UniProt P12310); test: full steady-state kinetics, ordered bi-bi fit, […] nm; assay type: biochemical; settings: cofactor and glucose varied, 35 mM Tris-HCl pH 8.0, 25 °C
XenA = XenA (Pseudomonas putida, UniProt Q9R9V9); test: initial rate, absorbance at […] nm; assay type: biochemical; settings: 0.2 mM NMNH, 5 mM ketoisophorone, 200 mM phosphate pH 7.5, 37 °C

Bs GDH, sequence (P12310 whole entry): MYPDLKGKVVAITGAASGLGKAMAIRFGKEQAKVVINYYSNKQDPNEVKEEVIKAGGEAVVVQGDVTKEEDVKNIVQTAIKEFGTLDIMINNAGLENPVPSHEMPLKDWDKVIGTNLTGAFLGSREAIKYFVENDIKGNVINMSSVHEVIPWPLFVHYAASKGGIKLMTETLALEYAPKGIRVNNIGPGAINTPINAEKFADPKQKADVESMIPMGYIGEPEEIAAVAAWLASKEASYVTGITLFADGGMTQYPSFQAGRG

Compound: OC[C@H]1OC(O)[C@H](O)[C@@H](O)[C@@H]1O (stereo partly drawn) [D-glucose]
- KB (Bs GDH): KA and KB are Michaelis constants for cofactor and substrate, respectively

Compound: NC(=O)C1=CN([C@@H]2O[C@H](COP(=O)(O)O)[C@@H](O)[C@H]2O)C=CC1 [NMNH]
- initial rate, absorbance at 340 nm (XenA): reduced NMN^+ (NMNH) was also well accepted by XenA
